According to publication PMC10004634 (PLOS ONE, 2023):
Read-outs that look alike come from different tables or passages of the source.

Assays:
Experiment in all cases: biochemical
Design in all cases: KINOMEscan scanMAX competition binding, DNA-tagged kinases, qPCR read-out, percent control at 300 nM
ERN1 = ERN1 (Homo sapiens, UniProt O75460)
TAOK1 = target: T1, TAOK1 (Homo sapiens, UniProt Q7L7X3)
T1 sequence (Q7L7X3 1-1001): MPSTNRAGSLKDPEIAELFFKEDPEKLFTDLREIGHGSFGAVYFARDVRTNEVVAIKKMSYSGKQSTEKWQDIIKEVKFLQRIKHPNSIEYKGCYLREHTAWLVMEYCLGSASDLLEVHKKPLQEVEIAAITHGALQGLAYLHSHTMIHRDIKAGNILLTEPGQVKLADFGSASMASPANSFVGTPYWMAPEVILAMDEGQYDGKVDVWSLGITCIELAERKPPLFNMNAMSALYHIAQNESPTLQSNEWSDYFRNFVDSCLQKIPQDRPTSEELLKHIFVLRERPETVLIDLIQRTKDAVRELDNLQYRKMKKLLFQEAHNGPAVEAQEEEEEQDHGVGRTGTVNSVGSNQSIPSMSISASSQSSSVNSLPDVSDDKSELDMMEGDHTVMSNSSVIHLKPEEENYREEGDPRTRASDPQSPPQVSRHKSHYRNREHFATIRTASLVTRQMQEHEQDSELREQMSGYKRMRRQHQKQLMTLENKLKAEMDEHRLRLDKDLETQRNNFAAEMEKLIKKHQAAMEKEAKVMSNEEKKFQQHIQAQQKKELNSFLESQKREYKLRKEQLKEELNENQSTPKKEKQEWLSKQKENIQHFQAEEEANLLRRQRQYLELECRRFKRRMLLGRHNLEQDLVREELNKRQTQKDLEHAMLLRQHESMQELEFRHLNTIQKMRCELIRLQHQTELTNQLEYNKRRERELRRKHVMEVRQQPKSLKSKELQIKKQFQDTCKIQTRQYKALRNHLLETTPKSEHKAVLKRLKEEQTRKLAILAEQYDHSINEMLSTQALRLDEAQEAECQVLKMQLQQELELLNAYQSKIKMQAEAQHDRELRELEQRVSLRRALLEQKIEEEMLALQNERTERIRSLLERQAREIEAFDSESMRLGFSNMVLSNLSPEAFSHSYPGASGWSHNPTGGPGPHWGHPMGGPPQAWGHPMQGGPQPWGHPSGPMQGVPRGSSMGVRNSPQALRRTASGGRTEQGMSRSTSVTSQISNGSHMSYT

RIPK1 = target: T2, RIPK1 (Homo sapiens, UniProt Q13546)
T2 sequence (Q13546 1-671): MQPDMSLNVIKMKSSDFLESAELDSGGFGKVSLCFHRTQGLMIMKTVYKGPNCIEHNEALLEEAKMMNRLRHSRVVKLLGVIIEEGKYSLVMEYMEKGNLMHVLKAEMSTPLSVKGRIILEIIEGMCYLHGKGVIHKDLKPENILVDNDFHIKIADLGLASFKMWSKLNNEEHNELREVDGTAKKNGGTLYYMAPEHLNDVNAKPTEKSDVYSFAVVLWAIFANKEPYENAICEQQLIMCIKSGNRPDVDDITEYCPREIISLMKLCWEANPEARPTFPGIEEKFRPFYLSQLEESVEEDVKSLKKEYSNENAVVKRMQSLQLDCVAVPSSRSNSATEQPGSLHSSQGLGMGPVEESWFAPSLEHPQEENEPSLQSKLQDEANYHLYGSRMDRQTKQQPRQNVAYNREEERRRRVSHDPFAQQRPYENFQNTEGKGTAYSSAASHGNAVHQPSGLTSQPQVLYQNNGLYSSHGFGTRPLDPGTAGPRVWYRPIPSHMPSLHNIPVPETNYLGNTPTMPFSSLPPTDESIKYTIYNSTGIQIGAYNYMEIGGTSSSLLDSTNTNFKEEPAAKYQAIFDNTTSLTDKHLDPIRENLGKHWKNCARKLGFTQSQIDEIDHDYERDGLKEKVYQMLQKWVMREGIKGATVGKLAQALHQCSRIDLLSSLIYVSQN

[1] = read-out: Percent control / Tirabrutinib
[2] = read-out: Percent control / Ibrutinib
[3] = read-out: Percent control / Zanubrutinib
[4] = read-out: Percent control / Acalabrutinib

Chain of ERN1 (O75460 whole entry): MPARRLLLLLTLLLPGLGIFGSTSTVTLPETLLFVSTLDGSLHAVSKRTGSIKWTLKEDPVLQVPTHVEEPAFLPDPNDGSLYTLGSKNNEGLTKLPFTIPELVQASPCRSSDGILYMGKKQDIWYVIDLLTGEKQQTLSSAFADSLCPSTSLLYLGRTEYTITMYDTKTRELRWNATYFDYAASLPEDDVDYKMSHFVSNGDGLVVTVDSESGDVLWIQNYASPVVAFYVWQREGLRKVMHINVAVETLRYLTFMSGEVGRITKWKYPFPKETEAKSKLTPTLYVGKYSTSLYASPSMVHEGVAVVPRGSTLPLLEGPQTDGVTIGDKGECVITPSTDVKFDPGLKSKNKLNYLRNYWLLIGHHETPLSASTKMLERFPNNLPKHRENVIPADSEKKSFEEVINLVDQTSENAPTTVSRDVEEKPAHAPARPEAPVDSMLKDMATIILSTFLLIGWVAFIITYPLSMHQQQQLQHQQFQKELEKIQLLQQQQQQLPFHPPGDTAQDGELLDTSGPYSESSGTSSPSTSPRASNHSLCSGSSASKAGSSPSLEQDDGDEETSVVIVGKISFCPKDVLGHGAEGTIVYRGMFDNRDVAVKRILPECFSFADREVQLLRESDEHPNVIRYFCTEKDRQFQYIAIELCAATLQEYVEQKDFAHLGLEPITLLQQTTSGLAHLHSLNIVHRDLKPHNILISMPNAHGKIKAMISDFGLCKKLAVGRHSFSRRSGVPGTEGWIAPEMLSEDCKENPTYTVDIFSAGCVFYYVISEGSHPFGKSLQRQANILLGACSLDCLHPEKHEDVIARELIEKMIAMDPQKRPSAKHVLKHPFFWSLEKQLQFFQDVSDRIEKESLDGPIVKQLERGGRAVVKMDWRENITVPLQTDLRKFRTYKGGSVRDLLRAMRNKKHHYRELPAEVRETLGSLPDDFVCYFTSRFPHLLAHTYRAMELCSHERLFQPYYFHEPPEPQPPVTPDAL

CC#CC(=O)N1CC[C@@H](n2c(=O)n(-c3ccc(Oc4ccccc4)cc3)c3c(N)ncnc32)C1 [Tirabrutinib] gave a remaining binding at 0.3 µM (ERN1; [1]) of 87% and a remaining binding at 0.3 µM (TAOK1; [1]) of 82%.
With C=CC(=O)N1CCC[C@@H](n2nc(-c3ccc(Oc4ccccc4)cc3)c3c(N)ncnc32)C1 [Ibrutinib] the remaining binding at 0.3 µM (ERN1; [2]) was 89%, the remaining binding at 0.3 µM (RIPK1; [2]) was 93% and the remaining binding at 0.3 µM (TAOK1; [2]) was 81%.
With C=CC(=O)N1CCC([C@@H]2CCNc3c(C(N)=O)c(-c4ccc(Oc5ccccc5)cc4)nn32)CC1 [Zanubrutinib] the remaining binding at 0.3 µM (ERN1; [3]) was 100%, the remaining binding at 0.3 µM (RIPK1; [3]) was 97% and the remaining binding at 0.3 µM (TAOK1; [3]) was 63%.
Compound CC#CC(=O)N1CCC[C@H]1c1nc(-c2ccc(C(=O)Nc3ccccn3)cc2)c2c(N)nccn12 [Acalabrutinib] has a remaining binding at 0.3 µM (ERN1; [4]) of 96% and a remaining binding at 0.3 µM (RIPK1; [4]) of 93%.
